Like-named read-outs stand apart in the source and are kept apart here. Square brackets hold non-standard residues; d marks the D form. Aib = CC(C)(N)C(=O)O
Experiments:
[1] = Pharmacokinetic study in minipigs (i.v.); assay type: in vivo, Göttingen minipigs; conditions: i.v. administration to minipigs, 2 nmol/kg
Method: This is done in a pharmacokinetic (PK) study, where the terminal half-life (t1/2) of the compound or derivative in question is determined. By terminal half-life is meant the time it takes to halve a certain plasma concentration in the terminal elimination phase.
Female Göttingen minipigs, obtained from Ellegaard Göttingen Minipigs (Dalmose, Denmark), approximately 8-12 months of age and weighing approximately 20-30 kg were used in the studies.
After three weeks of acclimatisation two permanent central venous catheters were implanted in vena cava caudalis in each animal. The animals were allowed at least 10 days recovery after the surgery and were then used for repeated pharmacokinetic studies with a suitable wash-out period between successive dosing.
The compounds of the invention were formulated (40 nmol/ml) in the following vehicle: 8 mM phosphate; 250 mM glycerol; 0.007% polysorbate 20, pH 7.4.
Blood samples (for example 1.3 ml) were collected in EDTA (1.3 ml tube containing K3EDTA to yield 1.6 mg K3EDTA/ml blood) coated tubes and then centrifuged at 4° C. and 2000×g for 10 minutes.
Plasma was within 30 min after centrifugation pipetted into Micronic tubes stored on dry ice and were afterwards kept at −20° C. until analysed for plasma concentration of the compounds using LCMS.
Plasma concentrations of the peptides of the invention were assayed by plasma protein precipitation and analysed by liquid chromatography mass spectrometry (LC-MS). Calibrators were prepared by spiking blank plasma from minipigs with the compounds in the typical range from 0.05 to 200 nM. […] The supernatant was diluted with 1 volumes of Milli-Q water containing 1% Formic acid before injection on the LC-MS system. Individual plasma concentration-time profiles were analysed by a non-compartmental pharmacokinetic method (NCA) in Phoenix v. 6.4 (Pharsight Inc., Mountain View, CA, USA), and the resulting terminal half-lives (harmonic mean) determined. The LC-MS analysis was carried out using a TurboFlow HPLC system from Thermo Fisher Scientific (Bremen, Germany) coupled to either a Q Exactive Orbitrap or Altis Triple Quadrupole (TQ) Mass Spectrometer. […] The Orbitrap mass spectrometer were operating in positive ionization mode with a spray voltage of 4.0 kV using Parallel Reaction Monitoring scan mode using 5 m/z isolation windows on the most abundant charge state of the compounds with a resolution of 35K on the Orbitrap MS.
The data was processed using the Quan Browser in the Xcalibur software from Thermo Fisher Scientific (Bremen, Germany) by fitted the data to linear calibration curves (weighed 1/x^2), used for calculating the concentration in the plasma samples. Quality control samples were included.

[2] = Chemical stability assessment in formulation (UPLC-UV-MS purity loss at 37° C.); assay type: physicochemical; conditions: 8 mM phosphate buffer pH 7.4, 1 mg/mL, 2 weeks
How it was run: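 Degradation tracked by UPLC-UV-MS (formic acid/acetonitrile gradient) on samples drawn over 2 weeks at 37° C. Solutions were made at a 1 mg/mL target in 8 mM phosphate, pH 7.4, kept in sealed vials and frozen after sampling.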

[3] = molecular target: T1, human GIP receptor (hGIPR) (Homo sapiens, UniProt P48546); assay: GIP receptor assay, method B (CRE-luciferase reporter, BHK cells, 384-well); assay type: cell-based
T1 construct: expressed in transfected cells
T1 sequence (P48546 22-466): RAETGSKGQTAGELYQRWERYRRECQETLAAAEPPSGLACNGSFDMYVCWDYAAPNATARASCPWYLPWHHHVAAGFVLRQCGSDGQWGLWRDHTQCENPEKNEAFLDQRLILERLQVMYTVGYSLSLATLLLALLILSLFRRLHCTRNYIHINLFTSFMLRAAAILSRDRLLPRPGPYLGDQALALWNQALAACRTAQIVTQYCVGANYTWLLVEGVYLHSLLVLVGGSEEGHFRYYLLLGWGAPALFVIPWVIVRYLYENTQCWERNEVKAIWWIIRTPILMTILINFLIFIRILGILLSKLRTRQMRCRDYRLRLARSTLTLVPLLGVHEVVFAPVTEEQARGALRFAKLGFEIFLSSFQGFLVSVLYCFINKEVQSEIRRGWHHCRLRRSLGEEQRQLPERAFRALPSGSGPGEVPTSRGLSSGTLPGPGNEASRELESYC
Method: (§1) To assess how the activation of the receptors is potentially influenced by the presence of human serum albumin (HSA), the in vitro assays were performed in the absence of HSA and presence of 1% (w/v) HSA.
Activation of the human GIP receptor leads to increased intra-cellular concentrations of cyclic AMP (cAMP) and the consequent transcription activation from promoters containing multiple copies of the cAMP response element (CRE). It is thus possible to measure GIP receptor activity using a CRE-luciferase reporter gene introduced into Baby Hamster Kidney (BHK) cells co-expressing the human GIP receptor.
Cells at about 80-90% confluency were washed once with PBS (Gibco 14190-094) and detached from the cell flasks with Versene (Gibco, 15040-066). After centrifugation, the cells were counted, resuspended and diluted to approximately 1.5-3.0×10^6 (1.5E+6 to 3.0E+6) cells/mL in Recovery Cell Culture Freezing Medium (Gibco, 12648-010) and stored at −180° C. in suitable aliquots until use.
(§2) The assay buffer consisted of DMEM without phenol red (Gibco, 11880-028) supplemented with 1× GlutaMAX (Gibco, 35050-038), 10 mM HEPES (Gibco, 15630-056), 1% (w/v) ovalbumin (Sigma, A5503) and 0.1% (v/v) Pluronic F-68 (Gibco, 24040-032) either with HSA or without HSA (Sigma, A9511).
Serial dilutions were transferred to a 384-well assay plate (PerkinElmer/Revvity, 6007688) and mixed with an equal volume (10 μL) of assay buffer without or with 3% HSA (Sigma, A-9511). Frozen stocks of hGIPR BHK Cre-Luc cells were thawed in a 37° C. water bath, washed once in PBS (Gibco 14190-094), diluted to 1.5×10^5 (1.5E+5) cells/mL in assay buffer (without HSA) and added (10 μL) to each well of the 384-well assay plate. After a short centrifugation, the assay plates were incubated for 3 hours at 37° C. in 5% CO2 and let to equilibrated at room temperature for 10 minutes before the addition of 30 μL steadylite Plus™ (PerkinElmer/Revvity, 6066759) per well. Plates were sealed and incubated at room temperature with gentle shaking for 30 minutes while protected from light. Luminescence was detected on a luminescence plate reader e.g. a Synergy 2 (BioTek).

[4] = molecular target: T2, human GLP-1 receptor (hGLP-1R) (Homo sapiens, UniProt P43220); assay: GLP-1 receptor assay, method B (CRE-luciferase reporter, BHK cells, 384-well); assay type: cell-based; conditions: hGLP-1R Potency, 1% HSA, EC50, methods B, in the presence of 1% HSA
T2 construct: expressed in transfected cells
T2 sequence (P43220 24-463): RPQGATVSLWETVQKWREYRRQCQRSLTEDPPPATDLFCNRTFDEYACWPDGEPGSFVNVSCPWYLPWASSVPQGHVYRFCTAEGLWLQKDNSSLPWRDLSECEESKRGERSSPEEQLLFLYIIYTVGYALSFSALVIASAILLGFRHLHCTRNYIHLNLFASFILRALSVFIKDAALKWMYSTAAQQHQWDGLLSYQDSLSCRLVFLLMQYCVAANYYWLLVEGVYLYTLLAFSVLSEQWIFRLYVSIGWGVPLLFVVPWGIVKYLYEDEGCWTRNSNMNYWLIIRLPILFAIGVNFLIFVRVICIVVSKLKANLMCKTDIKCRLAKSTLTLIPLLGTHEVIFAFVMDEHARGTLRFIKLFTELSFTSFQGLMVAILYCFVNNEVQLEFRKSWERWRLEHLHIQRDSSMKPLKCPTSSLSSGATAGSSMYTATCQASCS
Method: as §1
Cells at approximately 80-90% confluence were washed once in PBS (Gibco 14190-094) and loosened from the cell flasks with Versene (Gibco, 15040-033). […] Cells were aliquoted and stored at −180° C. until use.
as §2
Serial dilutions were transferred to a 384-well assay plate (PerkinElmer/Revvity, 6007688) and mixed with an equal volume (10 μL) of assay buffer without or with 3% (w/v) HSA (Sigma, A-9511). Frozen stocks of hGLP-1R BHK Cre-Luc cells were thawed in a 37° C. water bath, washed once in PBS (Gibco 14190-094), diluted to 1.5×10^5 (1.5E+5) cells/mL in assay buffer (without HSA) and added (10 μL) to each well of the 384-well assay plate. After a short centrifugation, the assay plates were incubated for 3 hours at 37° C. in 5% CO2 and let to equilibrated at room temperature for 10 minutes before the addition of 30 μL steadylite Plus™ PerkinElmer/Revvity, 6066759) per well. Plates were sealed and incubated at room temperature with gentle shaking for 30 minutes while protected from light. Luminescence was detected on a luminescence plate reader e.g. a Synergy 2 (BioTek).

[5] = molecular target: T3, human amylin receptor (hAMYR3) (Homo sapiens, UniProt O60896+P30988); assay: Amylin receptor assay, method B (CRE-luciferase reporter, BHK cells); assay type: cell-based
T3 construct: host or cells: BHK cells (Hollex-1 line expressing hCTR(a) and CRE-Luc), further transfected with human RAMP3
How it was run: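 BHK cells with CRE-luciferase, co-expressing hAMYR3 and transfected with human RAMP3, seeded overnight, then exposed 3 h at 37 °C to compound. Buffer: phenol red-free DMEM, 10 mM HEPES, 1% ovalbumin, with 0% or 1% (w/v) HSA. Luminescence read after 30 min with steadylite Plus.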

human GLP-1 receptor = human GLP-1 receptor (human, UniProt P43220 24-463); assay: cell-based or functional assay
[6] = molecular target: T4, human amylin-3(a) receptor (human, UniProt P30988 25-474; O60896 24-148); assay: cell-based or functional assay
T4 sequence (looked up) 1: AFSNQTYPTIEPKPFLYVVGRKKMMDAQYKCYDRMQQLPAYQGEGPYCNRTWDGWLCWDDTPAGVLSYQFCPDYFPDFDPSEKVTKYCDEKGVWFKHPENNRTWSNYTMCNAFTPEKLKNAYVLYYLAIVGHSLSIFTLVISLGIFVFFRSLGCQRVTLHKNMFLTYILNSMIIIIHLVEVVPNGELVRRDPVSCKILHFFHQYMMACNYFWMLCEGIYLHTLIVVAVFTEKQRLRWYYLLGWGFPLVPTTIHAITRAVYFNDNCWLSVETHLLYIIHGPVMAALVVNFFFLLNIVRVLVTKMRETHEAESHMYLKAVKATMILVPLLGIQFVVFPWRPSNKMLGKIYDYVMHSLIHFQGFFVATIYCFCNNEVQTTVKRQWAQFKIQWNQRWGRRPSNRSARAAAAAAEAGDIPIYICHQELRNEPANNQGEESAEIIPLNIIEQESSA
T4 sequence (looked up) 2: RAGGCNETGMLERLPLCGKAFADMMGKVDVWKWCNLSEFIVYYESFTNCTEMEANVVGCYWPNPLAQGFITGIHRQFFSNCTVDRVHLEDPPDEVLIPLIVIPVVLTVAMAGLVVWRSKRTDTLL

human GIP receptor = molecular target: T5, human GIP receptor (human, UniProt P48546 22-466); assay: cell-based or functional assay
T5 sequence (looked up): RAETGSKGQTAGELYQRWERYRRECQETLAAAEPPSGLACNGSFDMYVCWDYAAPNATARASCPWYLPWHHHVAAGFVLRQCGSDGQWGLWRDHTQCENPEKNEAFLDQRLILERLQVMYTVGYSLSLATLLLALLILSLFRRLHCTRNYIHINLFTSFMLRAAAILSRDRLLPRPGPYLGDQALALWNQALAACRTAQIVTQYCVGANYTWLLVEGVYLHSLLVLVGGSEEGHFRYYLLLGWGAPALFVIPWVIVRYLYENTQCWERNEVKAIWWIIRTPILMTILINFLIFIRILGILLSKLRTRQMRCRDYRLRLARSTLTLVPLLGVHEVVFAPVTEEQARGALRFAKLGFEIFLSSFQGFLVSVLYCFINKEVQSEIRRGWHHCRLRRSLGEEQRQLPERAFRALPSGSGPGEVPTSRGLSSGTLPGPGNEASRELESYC

Row | Molecule | Purity loss per week at 37° C. [2] | hGLP-1R Potency, no HSA, EC50 [pM] (human GLP-1 receptor) | hAMYR3 Potency, no HSA, EC50 [pM] [6] | hGIPR Potency, no HSA, EC50 [pM] (human GIP receptor) | further results
1 | CC[C@H](C)[C@H](NC(=O)[C@H](CCC(=O)O)NC(=O)[C@H](CCC(=O)O)NC(=O)[C@H](CC(C)C)NC(=O)[C@H](CC(C)C)NC(=O)[C@@H](NC(=O)[C@H](CO)NC(=O)[C@H](Cc1ccc(O)cc1)NC(=O)[C@H](CC(=O)O)NC(=O)[C@H](CO)NC(=O)[C@@H](NC(=O)[C@H](Cc1ccccc1)NC(=O)[C@@H](NC(=O)CNC(=O)[C@H](CCC(=O)O)NC(=O)C(C)(C)NC(=O)[C@@H](N)Cc1ccc(O)cc1)[C@@H](C)O)[C@@H](C)O)[C@@H](C)CC)C(=O)N[C@@H](C)C(=O)N[C@@H](C)C(=O)N[C@@H](CCCNC(=N)N)C(=O)N[C@@H](CCC(=O)O)C(=O)N[C@@H](Cc1ccccc1)C(=O)N[C@H](C(=O)N[C@@H](CCC(=O)O)C(=O)N[C@@H](Cc1c[nH]c2ccccc12)C(=O)N[C@@H](CC(C)C)C(=O)N[C@@H](CC(C)C)C(=O)N[C@@H](C)C(=O)NCC(=O)NCC(=O)N1CCC[C@H]1C(=O)N[C@@H](CO)C(=O)N[C@@H](CO)C(=O)NCC(=O)N[C@@H](C)C(=O)NCC(=O)N[C@@H](CCC(N)=O)C(=O)N[C@@H](C)C(=O)N1CCC[C@H]1C(=O)NCC(=O)N[C@@H](CCC(N)=O)C(=O)N[C@@H](C)C(=O)N1CCC[C@H]1C(=O)N[C@@H](CC(C)C)C(=O)N[C@@H](C)C(=O)N[C@@H](CO)C(=O)N[C@@H](Cc1c[nH]cn1)C(=O)N[C@@H](CC(C)C)C(=O)N[C@@H](CO)C(=O)N[C@H](C(=O)N[C@@H](C)C(=O)N[C@@H](CCC(N)=O)C(=O)N[C@H](C(=O)N[C@@H](CCC(N)=O)C(=O)N[C@@H](CCCNC(=N)N)C(=O)N[C@@H](CC(C)C)C(=O)N[C@@H](CO)C(=O)N[C@@H](C)C(=O)N[C@@H](CCC(=O)O)C(=O)N[C@@H](CC(C)C)C(=O)N[C@@H](Cc1c[nH]cn1)C(=O)N[C@@H](CCCCNC(=O)COCCOCCNC(=O)COCCOCCNC(=O)CC[C@H](NC(=O)CCCCCCCCCCCCCCCCCCC(=O)O)C(=O)O)C(=O)N[C@@H](CC(C)C)C(=O)N[C@@H](C)C(=O)N[C@H](C(=O)N[C@@H](CC(C)C)C(=O)N1CCC[C@H]1C(=O)N[C@@H](CCCNC(=N)N)C(=O)N[C@H](C(=O)N[C@@H](CCC(=O)O)C(=O)N[C@H](C(=O)NCC(=O)N[C@@H](CO)C(=O)NCC(=O)N[C@@H](CO)C(=O)N1CCC[C@H]1C(N)=O)[C@@H](C)O)[C@@H](C)O)[C@@H](C)O)[C@@H](C)O)[C@@H](C)O)[C@@H](C)CC [Compound 125] | 0.5% |  |  |  | Terminal half-life t1/2 [1]: 100 h
2 | CC[C@H](C)[C@H](NC(=O)[C@H](CCC(=O)O)NC(=O)[C@H](CCC(=O)O)NC(=O)[C@H](CC(C)C)NC(=O)[C@H](CC(C)C)NC(=O)[C@H](CCCCNC(=O)COCCOCCNC(=O)COCCOCCNC(=O)CC[C@H](NC(=O)CCCCCCCCCCCCCCCCCCC(=O)O)C(=O)O)NC(=O)[C@H](CO)NC(=O)[C@H](Cc1ccc(O)cc1)NC(=O)[C@H](CC(=O)O)NC(=O)[C@H](CO)NC(=O)[C@@H](NC(=O)[C@H](Cc1ccccc1)NC(=O)[C@@H](NC(=O)CNC(=O)[C@H](CCC(=O)O)NC(=O)C(C)(C)NC(=O)[C@@H](N)Cc1ccc(O)cc1)[C@@H](C)O)[C@@H](C)O)C(=O)N[C@@H](C)C(=O)N[C@@H](C)C(=O)N[C@@H](CCCNC(=N)N)C(=O)N[C@@H](CCC(=O)O)C(=O)N[C@@H](Cc1ccccc1)C(=O)N[C@H](C(=O)N[C@@H](CCC(=O)O)C(=O)N[C@@H](Cc1c[nH]c2ccccc12)C(=O)N[C@@H](CC(C)C)C(=O)N[C@@H](CC(C)C)C(=O)N[C@@H](C)C(=O)NCC(=O)NCC(=O)N1CCC[C@H]1C(=O)N[C@@H](CO)C(=O)N[C@@H](CO)C(=O)NCC(=O)N[C@@H](C)C(=O)NCC(=O)N[C@@H](C)C(=O)N[C@@H](CO)C(=O)N[C@@H](CCC(=O)O)C(=O)N[C@@H](CC(C)C)C(=O)N[C@@H](CO)C(=O)N[C@H](C(=O)N[C@@H](C)C(=O)N[C@@H](CCC(N)=O)C(=O)N[C@@H](CC(C)C)C(=O)NCC(=O)N[C@@H](CCCNC(=N)N)C(=O)N[C@@H](CC(C)C)C(=O)N[C@@H](CO)C(=O)N[C@@H](C)C(=O)N[C@@H](CCC(=O)O)C(=O)N[C@@H](CC(C)C)C(=O)N[C@@H](Cc1c[nH]cn1)C(=O)N[C@@H](CCC(N)=O)C(=O)N[C@@H](CC(C)C)C(=O)N[C@@H](C)C(=O)N[C@H](C(=O)N[C@@H](CC(C)C)C(=O)N1CCC[C@H]1C(=O)N[C@@H](CCCNC(=N)N)C(=O)N[C@H](C(=O)N[C@@H](CCC(=O)O)C(=O)N[C@H](C(=O)NCC(=O)N[C@@H](CO)C(=O)NCC(=O)N[C@@H](CO)C(=O)N1CCC[C@H]1C(N)=O)[C@@H](C)O)[C@@H](C)O)[C@@H](C)O)[C@@H](C)O)[C@@H](C)CC [Compound 183] | 1.3% |  |  |  | EC50 ([3]; hGIPR Potency, 1% HSA, EC50, methods B, in the presence of 1% HSA): 0.0714 nM; EC50 ([3]; method B, absence of HSA, read-out: hGIPR Potency, no HSA, EC50): 0.002 nM; EC50 [4]: 0.744 nM; EC50 ([5]; hAMYR3 Potency, 1% HSA, EC50, methods B, in the presence of 1% HSA): 0.108 nM; EC50 ([5]; method B, absence of HSA, read-out: hAMYR3 Potency, no HSA, EC50): 0.0062 nM
3 | Compound 217 (also: further groups not given here) peptide: Y[Aib]EGTFTSDYSILLEEIAAREFIEWLLAGGPSSGAGQAPGEAPGASHLSTAQTQRLSAELHKLATLPRTETGSGSP-NH2 |  | 9 pM |  |  | 
4 | Compound 219 (also: further groups not given here) peptide: Y[Aib]EGTFTSDYSILLEEIAAREFIEWLLAGGPSSGAGQAPGQAEGASHLSTAQTQRLSAELHKLATLPRTETGSGSP-NH2 |  |  | 5 pM | 0.5 pM | 
5 | Compound 210 (also: further groups not given here) peptide: Y[Aib]EGTFTSDYSILLEEQAAREFIEWLLAGGPSSGAGQAPGQAPGASHLSTAQTQRLSAELHKLATLPRTETGSGSP-NH2 |  | 16.4 pM | 7.28 pM | 9.57 pM | 
